{"source": "patent US9133168B2", "about": "“Pyrimidine derivatives, preparation thereof, and pharmaceutical use thereof as akt(pkb) phosphorylation inhibitors” (SANOFI, priority 2010, dated 2015)", "data": [{"system": "AKT protein phosphorylated on serine 473 (P-AKT-S473) in PC3 human prostate carcinoma cells", "test": "pAKT expression in PC3 human prostate carcinoma cells, MSD Multi-spot Biomarker detection (Test A)", "assay_type": "cell-based", "settings": "Homo sapiens, PC-3, PC3 cells, 1 to 2 h incubation, P-AKT-S473, absolute IC50, mean of two independent experiments", "description": "(§1) The inhibitory activity of the molecules on AKT phosphorylation is measured using the MSD Multi-spot Biomarker detection technique from Meso Scale Discovery also described below. […] The primary antibody specific for […]) is coated on to an electrode in each well of the 96-well plates of the MSD kit: after the addition of a protein lysate to each well, the signal is visualized by adding a secondary detection antibody labeled with an electrochemiluminescent compound. The procedure followed is the one described in the kit. […] On day 2, the cells are incubated in the presence or absence of the test products for 1 to 2 h at 37° C. in the presence of 5% CO2. The molecules, diluted in dimethyl sulfoxide (DMSO Sigma #D2650), are added from a 20-times concentrated stock solution, the final percentage of DMSO being 0.1%. The molecules are tested either at a single concentration of less than or equal to 10 μM, or at increasing concentrations in a range that can extend from less than 1 nM to 10 μM. After this incubation, the cells are lysed for the preparation of the proteins. […] At this stage, the plates containing the lysates can be frozen at -20° C. or at -80° C. The wells of the 96 well plates of the MSD kit are saturated for 1 h at ambient temperature with the blocking solution of the MSD kit. Four washes are carried out with 150 μl of Tris Wash Buffer of the MSD kit. The lysates previously prepared are transferred into the 96-well multi-spot plates of the MSD kit and incubated for 1 h at ambient temperature, with shaking. Four washes are carried out with 150 μl of Tris Wash Buffer of the MSD kit. 25 μl of the MSD sulfo-tag detection antibody solution are added to the wells and incubated for 1 h at ambient temperature, with shaking. Four washes are carried out with 150 μl of Tris Wash Buffer of the MSD kit. 150 μl of Read Buffer of the MSD kit are added to the wells and the plates are read immediately on the S12400 instrument from Meso Scale Discovery. The instrument measures a signal for each well. Wells without cells and containing the lysis buffer serve to determine the background noise that will be subtracted from all the measurements (min). The wells containing cells in the absence of product and in the presence of 0.1% DMSO are considered to be the 100% signal (max). The percentage inhibition is calculated for each concentration of product tested, according to the following formula: (1-((test-min)/(max-min)))×100. […] Two independent experiments make it possible to calculate the mean of the IC50 values.", "units": {"IC50": "nM"}, "values": [{"smiles": "CN1CCN(Cc2cccc3c2CCN3C(=O)Cc2nc(N3CCOCC3)cc(=O)[nH]2)CC1", "note": "[Example 18d, 2-(2-{4-[(4-methylpiperazin-1-yl)methyl]-2,3-dihydro-1H-indol-1-yl}-2-oxoethyl)-6-(morpholin-4-yl)pyrimidin-4(3H)-one]", "IC50": 272}, {"smiles": "C[C@@H]1Cc2ccccc2N1C(=O)Cc1nc(N2CCOCC2)c(F)c(=S)[nH]1", "note": "[Example 11e, 2-(5-fluoro-4-morpholin-4-yl-6-thioxo-1,6-dihydropyrimidin-2-yl)-1-((R)-2-methyl-2,3-dihydroindol-1-yl)ethanone]", "IC50": 61}, {"smiles": "C[C@H]1Cc2ccccc2N1C(=O)Cc1nc(N2CCOCC2)c(F)c(=S)[nH]1", "note": "[Example 10e, 2-(5-fluoro-4-morpholin-4-yl-6-thioxo-1,6-dihydropyrimidin-2-yl)-1-((S)-2-methyl-2,3-dihydroindol-1-yl)ethanone]", "IC50": 221}, {"smiles": "CC(F)(C(=O)N1CCc2c(F)cccc21)c1nc(N2CCOCC2)cc(=O)[nH]1", "note": "(single isomer, unassigned; (-)) [Example 44c, (−)-2-[2-fluoro-1-(4-fluoro-2,3-dihydro-1H-indol-1-yl)-1-oxopropan-2-yl]-6-(morpholin-4-yl)pyrimidin-4(3H)-one]", "IC50": 140}, {"smiles": "CCC1CN(c2cc(=O)[nH]c(CC(=O)Nc3ccc(F)cc3)n2)CCO1", "note": "(racemic) [Example 14b, (±)-2-[4-(2-ethylmorpholin-4-yl)-6-oxo-1,6-dihydropyrimidin-2-yl]-N-(4-fluorophenyl)acetamide]", "IC50": 280}, {"smiles": "O=C(Cc1nc(N2CCOCC2)cc(=O)[nH]1)N1CCc2c(-c3ccccn3)cccc21", "note": "[Example 12d, 6-(morpholin-4-yl)-2-{2-oxo-2-[4-(pyridin-2-yl)-2,3-dihydro-1H-indol-1-yl]ethyl}pyrimidin-4(3H)-one]", "IC50": 66}, {"smiles": "CC(C(=O)N1CCc2c(F)cccc21)c1nc(N2CCOCC2)c(F)c(=O)n1C", "note": "(stereo not shown) [Example 2a, 5-fluoro-2-[1-(4-fluoro-2,3-dihydro-1H-indol-1-yl)-1-oxopropan-2-yl]-3-methyl-6-(morpholin-4-yl)pyrimidin-4(3H)-one]", "IC50": 938}, {"smiles": "C[C@@H]1Cc2ccccc2N1C(=O)Cc1nc(N2CCOCC2)cc(=S)n1C", "note": "[Example 5e, 1-((R)-2-methyl-2,3-dihydroindol-1-yl)-2-(1-methyl-4-morpholin-4-yl-6-thioxo-1,6-dihydropyrimidin-2-yl)ethanone]", "IC50": 71}, {"smiles": "CC1Cc2c(Cl)cccc2N1C(=O)Cc1nc(N2CCOCC2)c(F)c(=O)[nH]1", "note": "(stereo not drawn) [Example 18a, 5-fluoro-2-[2-((+)-4-chloro-2-methyl-2,3-dihydroindol-1-yl)-2-oxoethyl]-6-morpholin-4-yl-3H-pyrimidin-4-one]", "IC50": 38}, {"smiles": "O=C(Cc1nc(N2CCOCC2)cc(=O)[nH]1)N1CCc2c(N3CCOCC3)cccc21", "note": "[Example 33d, 6-(morpholin-4-yl)-2-{2-[4-(morpholin-4-yl)-2,3-dihydro-1H-indol-1-yl]-2-oxoethyl}pyrimidin-4(3H)-one]", "IC50": 111}, {"smiles": "Cn1c(CC(=O)N2CCc3c(F)cccc32)nc(N2CCOCC2)cc1=S", "note": "[Example 6e, 1-(4-fluoro-2,3-dihydroindol-1-yl)-2-(1-methyl-4-morpholin-4-yl-6-thioxo-1,6-dihydropyrimidin-2-yl)ethanone]", "IC50": 31}, {"smiles": "O=C(Cc1nc(N2CCOCC2)cc(=O)[nH]1)N1CCc2c(OC(F)F)cccc21", "note": "[Example 9d, 2-{2-[4-(difluoromethoxy)-2,3-dihydro-1H-indol-1-yl]-2-oxoethyl}-6-(morpholin-4-yl)pyrimidin-4(3H)-one]", "IC50": 44}, {"smiles": "C[C@@H]1Cc2ccccc2N1C(=O)Cc1nc(N2CCOCC2)cc(=S)[nH]1", "note": "[Example 3e, 1-((R)-2-methyl-2,3-dihydroindol-1-yl)-2-(4-morpholin-4-yl-6-thioxo-1,6-dihydropyrimidin-2-yl)ethanone]", "IC50": 8}, {"smiles": "Nn1c(CC(=O)N2CCc3ccccc32)nc(N2CCOCC2)cc1=O", "note": "[Example 41d, 3-amino-2-[2-(2,3-dihydro-1H-indol-1-yl)-2-oxoethyl]-6-(morpholin-4-yl)pyrimidin-4(3H)-one]", "IC50": 131}, {"smiles": "O=C(Cc1nc(N2CCOCC2)c(F)c(=O)[nH]1)N1CCc2c(F)cccc21", "note": "[Example 1a, 5-fluoro-2-[2-(4-fluoro-2,3-dihydro-1H-indol-1-yl)-2-oxoethyl]-6-(morpholin-4-yl)pyrimidin-4(3H)-one]", "IC50": 22}]}, {"system": "AKT protein phosphorylated on serine 473 (P-AKT-S473) in PC3 human prostate carcinoma cells", "test": "pAKT expression in PC3 human prostate carcinoma cells, MSD Multi-spot Biomarker detection (Test A)", "assay_type": "cell-based", "settings": "PC3 cells, 1 to 2 h incubation, P-AKT-S473, absolute IC50, mean of two independent experiments", "description": "as §1", "units": {"IC50": "nM"}, "values": [{"smiles": "O=C(Cc1nc(N2CCOCC2)cc(=O)[nH]1)N1c2ccccc2CC1CF", "note": "(stereo not drawn) [Example 40d, 2-[2-((−)-2-Fluoromethyl-2,3-dihydroindol-1-yl)-2-oxoethyl]-6-morpholin-4-yl-3H-pyrimidin-4-one]", "IC50": 13}, {"smiles": "CC1Cc2c(Cl)cccc2N1C(=O)Cc1nc(N2CCOCC2)cc(=O)n1C", "note": "(single isomer, unassigned; (+)) [Example 33c, (+)-2-{2-[4-chloro-2-methyl-2,3-dihydro-1H-indol-1-yl]-2-oxoethyl}-3-methyl-6-(morpholin-4-yl)pyrimidin-4(3H)-one]", "IC50": 55}, {"smiles": "CC1Cc2cc(F)ccc2N1C(=O)Cc1nc(N2CCOCC2)c(F)c(=O)[nH]1", "note": "(stereo not drawn) [Example 6a, 5-fluoro-2-[2-((+)-5-fluoro-2-methyl-2,3-dihydroindol-1-yl)-2-oxoethyl]-6-morpholin-4-yl-3H-pyrimidin-4-one]", "IC50": 10}, {"smiles": "CC1Cc2c(O)cccc2N1C(=O)Cc1nc(N2CCOCC2)cc(=O)[nH]1", "note": "(stereo not shown) [Example 6c, 2-[2-(4-hydroxy-2-methyl-2,3-dihydro-1H-indol-1-yl)-2-oxoethyl]-6-(morpholin-4-yl)pyrimidin-4(3H)-one]", "IC50": 24}, {"smiles": "CC1Cc2c(F)cccc2N1C(=O)Cc1nc(N2CCOCC2)cc(=O)[nH]1", "note": "(single isomer, unassigned; (+)) [Example 28c, (+)-2-{2-[4-fluoro-2-methyl-2,3-dihydro-1H-indol-1-yl]-2-oxoethyl}-6-(morpholin-4-yl)pyrimidin-4(3H)-one]", "IC50": 98}, {"smiles": "CC1Cc2cc(F)c(F)cc2N1C(=O)Cc1nc(N2CCOCC2)c(F)c(=O)n1C", "note": "(stereo not drawn) [Example 27a, 5-fluoro-2-[2-((−)-5,6-difluoro-2-methyl-2,3-dihydroindol-1-yl)-2-oxoethyl]-3-methyl-6-morpholin-4-yl-3H-pyrimidin-4-one]", "IC50": 270}, {"smiles": "CC1Cc2cc(F)ccc2N1C(=O)Cc1nc(N2CCOCC2)cc(=O)n1C", "note": "(single isomer, unassigned; (+)) [Example 15c, (+)-2-{2-[5-fluoro-2-methyl-2,3-dihydro-1H-indol-1-yl]-2-oxoethyl}-3-methyl-6-(morpholin-4-yl)pyrimidin-4(3H)-one]", "IC50": 28}, {"smiles": "CC1Cc2c(Cl)cccc2N1C(=O)Cc1nc(N2CCOCC2)cc(=O)[nH]1", "note": "(stereo not shown) [Example 1c, 2-[2-(4-chloro-2-methyl-2,3-dihydro-1H-indol-1-yl)-2-oxoethyl]-6-(morpholin-4-yl)pyrimidin-4(3H)-one]", "IC50": 5}, {"smiles": "O=C(Cc1nc(N2CCOC(CF)C2)cc(=O)[nH]1)Nc1ccc(F)cc1", "note": "(single isomer, unassigned; (+)) [Example 4b, (+)-N-(4-fluorophenyl)-2-[4-(2-fluoromethylmorpholin-4-yl)-6-oxo-1,6-dihydropyrimidin-2-yl]acetamide]", "IC50": 118}, {"smiles": "CC1Cc2c(ccc(F)c2F)N1C(=O)Cc1nc(N2CCOCC2)cc(=O)[nH]1", "note": "(single isomer, unassigned; (+)) [Example 17c, (+)-2-{2-[4,5-difluoro-2-methyl-2,3-dihydro-1H-indol-1-yl]-2-oxoethyl}-6-(morpholin-4-yl)pyrimidin-4(3H)-one]", "IC50": 4}, {"smiles": "CC1Cc2c(ccc(F)c2Cl)N1C(=O)Cc1nc(N2CCOCC2)cc(=O)[nH]1", "note": "(single isomer, unassigned; (+)) [Example 37c, (+)-2-{2-[4-chloro-5-fluoro-2-methyl-2,3-dihydro-1H-indol-1-yl]-2-oxoethyl}-6-(morpholin-4-yl)pyrimidin-4(3H)-one]", "IC50": 7}, {"smiles": "CC1Cc2cc(F)ccc2N1C(=O)Cc1nc(N2CCOCC2)c(F)c(=O)n1C", "note": "(stereo not drawn) [Example 15a, 5-fluoro-2-[2-((+)-5-fluoro-2-methyl-2,3-dihydroindol-1-yl)-2-oxoethyl]-3-methyl-6-morpholin-4-yl-3H-pyrimidin-4-one]", "IC50": 65}, {"smiles": "CC1Cc2ccc(F)cc2N1C(=O)Cc1nc(N2CCOCC2)cc(=O)[nH]1", "note": "(stereo not drawn) [Example 36c, 2-{2-[(−)-6-fluoro-2-methyl-2,3-dihydro-1H-indol-1-yl]-2-oxoethyl}-6-(morpholin-4-yl)pyrimidin-4(3H)-one]", "IC50": 9}]}]}
